Assay results from PMC7917936, “Synthesis and Self-Assembly Properties of Bola-Amphiphilic Glycosylated Lipopeptide-Type Supramolecular Hydrogels Showing Colour Changes Along with Gel–Sol Transition” (International Journal of Molecular Sciences, 2021).

Assay: Measurement of the gel–sol transition temperature (Tgel), vial inversion method
Type: physicochemical
Conditions: hydrogel at CGC (0.19 wt%), 200 mM HEPES–NaOH buffer (pH 8.0), oil bath 25 to 85 °C, 1 °C/step, 1 min per step
Protocol: The gel–sol phase transition behaviour of the βGal–AAC–C6–F3 hydrogel (0.19 wt% (CGC) in 200 mM HEPES–NaOH buffer (pH 8.0)) was determined using the vial inversion method. The inverted gel in the vial was placed in an oil bath, which was heated from 25 °C to 85 °C, at a rate of 1 °C/step. The vial was immersed at each temperature for 1 min to equilibrate. The temperature, at which the sample completely dissolved, was defined as the Tgel value of the gel.

Structure (SMILES): O=C(CCCCCCN1C(=O)C(Cl)=C(Nc2ccc(O[C@@H]3O[C@H](CO)[C@H](O)[C@H](O)[C@H]3O)cc2)C1=O)N[C@@H](Cc1ccccc1)C(=O)N[C@@H](Cc1ccccc1)C(=O)N[C@@H](Cc1ccccc1)C(=O)O [βGal–AAC–C6–F3]
- Tgel (gel-to-sol phase transition temperature): 78 °C
